Laboratory results: ChEMBL document CHEMBL1126398, “(5S)-3-aryl-5-(1-piperidinylmethyl)-2-oxazolidinones, a new class of potential neuroleptics with a high affinity for sigma receptors” (Bioorg Med Chem Lett, 1992)
pIC50: −log10 of the molar value.

Target: D(2) dopamine receptor (Rattus norvegicus, UniProt P61169)
Assay: Binding affinity against the Dopamine receptor D2 in rat striatum by using [3H]spiperone radioligand
Type: tissue-based

D(2) dopamine receptor, sequence (P61169 whole entry): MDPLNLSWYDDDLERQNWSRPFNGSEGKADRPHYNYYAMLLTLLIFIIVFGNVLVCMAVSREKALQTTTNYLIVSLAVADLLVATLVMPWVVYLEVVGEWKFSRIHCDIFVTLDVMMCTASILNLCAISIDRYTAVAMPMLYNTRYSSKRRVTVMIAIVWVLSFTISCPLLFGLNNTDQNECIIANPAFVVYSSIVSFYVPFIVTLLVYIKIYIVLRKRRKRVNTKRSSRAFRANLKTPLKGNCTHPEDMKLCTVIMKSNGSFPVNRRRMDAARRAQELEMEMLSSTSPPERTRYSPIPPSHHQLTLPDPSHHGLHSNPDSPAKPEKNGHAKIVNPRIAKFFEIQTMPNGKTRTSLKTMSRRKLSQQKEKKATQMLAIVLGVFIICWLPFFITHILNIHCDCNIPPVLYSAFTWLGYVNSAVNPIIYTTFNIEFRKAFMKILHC

OC(CCCN1CCN(c2ncc(F)cn2)CC1)c1ccc(F)cc1 (stereo unspecified) [BMY-14802]
pIC50: 5.31
